Measured values reported in patent US10988459B2 (priority 2015, dated 2021).

Target: human RIP1 kinase domain (2-375) (Homo sapiens (Human), UniProt Q13546)
Test: biochemical
Format: biochemical
Conditions: Table 1; apparent Ki (Morrison tight-binding fit); 50 nM RIP1 kinase domain, 50 uM ATP, 2 hours incubation; read-out: RIP1 Ki
Procedure, shortened: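 50 nM purified kinase domain from baculovirus-infected insect cells, incubated 2 h with compound in 50 mM Hepes pH 7.5, 30 mM MgCl2, 1 mM DTT, 50 uM ATP, 0.002% Brij-35, 0.5% DMSO. ADP formation read by Transcreener FP at 633 nm excitation. Ki^app fitted with the Morrison tight-binding equation.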

Sequence of human RIP1 kinase domain (2-375) (Q13546 2-375): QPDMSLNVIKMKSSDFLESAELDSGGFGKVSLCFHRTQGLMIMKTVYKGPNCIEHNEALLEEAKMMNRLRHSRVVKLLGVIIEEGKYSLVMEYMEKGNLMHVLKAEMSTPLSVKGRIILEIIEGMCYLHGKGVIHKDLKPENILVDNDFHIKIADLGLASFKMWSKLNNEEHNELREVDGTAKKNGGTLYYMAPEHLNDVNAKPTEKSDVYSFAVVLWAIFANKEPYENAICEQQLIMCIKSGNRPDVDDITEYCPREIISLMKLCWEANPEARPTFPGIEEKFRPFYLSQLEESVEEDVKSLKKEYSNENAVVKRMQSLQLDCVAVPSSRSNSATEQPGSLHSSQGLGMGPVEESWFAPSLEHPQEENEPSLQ

Point of comparison: `CN1C(=O)[C@@H](NC(=O)c2ncn3ccc(C(F)(F)F)cc23)COc2ccccc21` [Example 37, N-[(3S)-5-methyl-4-oxo-2,3-dihydro-1,5-benzoxazepin-3-yl]-7-(trifluoromethyl)imidazo[1,5-a]pyridine-1-carboxamide], Ki 5.08 nM. Against it:
- CC1Cc2c(C(=O)N[C@H]3COc4[nH]ncc4NC3=O)n[nH]c2CO1 (stereo partly drawn) [Example 25, 5-methyl-N—((S)-5-oxo-4,5,6,7-tetrahydro-1H-pyrazolo[3,4-b][1,4]oxazepin-6-yl)-1,4,5,7-tetrahydropyrano[3,4-c]pyrazole-3-carboxamide] — higher, > 10000 nM
- CN1C(=O)[C@@H](NC(=O)c2n[nH]c3c2CCCC3)COc2ccccc21 [Example 32, (S)—N-(5-methyl-4-oxo-2,3,4,5-tetrahydrobenzo[b][1,4]oxazepin-3-yl)-4,5,6,7-tetrahydro-1H-indazole-3-carboxamide] — 670-fold higher, 3400 nM

Same assay, conditions: Table 5; apparent Ki (Morrison tight-binding fit); 50 nM RIP1 kinase domain, 50 uM ATP, 2 hours incubation; read-out: Ki

Point of comparison: `CN1C(=O)[C@@H](NC(=O)c2nc3n(n2)[C@@H](c2ccccc2)CCC3)COc2ccccc21` (single isomer, unassigned) [Example 734], Ki 149 nM. Against it:
- CN1C(=O)[C@@H](NC(=O)c2ncc3c(n2)[C@@](C)(C(F)(F)F)OC3)COc2ccccc21 [Example 743, (7S)-7-methyl-N-[(3S)-5-methyl-4-oxo-2,3-dihydro-1,5-benzoxazepin-3-yl]-7-(trifluoromethyl)-5H-furo[3,4-d]pyrimidine-2-carboxamide] — 8.8-fold lower, 17 nM
- Cc1cc2n(n1)CC[C@H](NC(=O)c1cc3c(-c4ccccc4)cccc3cn1)C(=O)N2C (racemic) [Example 702, 5-phenyl-N-[rac-(6S)-2,4-dimethyl-5-oxo-7,8-dihydro-6H-pyrazolo[1,5-a][1,3]diazepin-6-yl]isoquinoline-3-carboxamide] — 4.5-fold lower, 33 nM
- COCCNCc1cc2n(n1)CCC(NC(=O)c1ncn(Cc3ccccc3)n1)C(=O)N2C (single isomer, unassigned) [Example 724, 1-benzyl-N-[2-[(2-methoxyethylamino)methyl]-4-methyl-5-oxo-7,8-dihydro-6H-pyrazolo[1,5-a][1,3]diazepin-6-yl]-1,2,4-triazole-3-carboxamide] — 4-fold higher, 598 nM
- CN1C(=O)[C@@H](NC(=O)c2cc3c(cn2)CO[C@]3(C)C(F)(F)F)COc2ccccc21 [Example 742, (1S)-1-methyl-N-[(3S)-5-methyl-4-oxo-2,3-dihydro-1,5-benzoxazepin-3-yl]-1-(trifluoromethyl)-3H-furo[3,4-c]pyridine-6-carboxamide] — 15-fold lower, 10 nM

Same assay, conditions: human RIP1 kinase domain (2-375), 50 uM ATP, 2 hours incubation, Transcreener ADP assay; read-out: RIP1 Ki

Point of comparison: `Cc1cc2n(n1)CC[C@H](NC(=O)c1ncn(Cc3ccccc3)n1)C(=O)N2C` [Example 172, (S)-1-benzyl-N-(2,4-dimethyl-5-oxo-5,6,7,8-tetrahydro-4H-pyrazolo[1,5-a][1,3]diazepin-6-yl)-1H-1,2,4-triazole-3-carboxamide], Ki 22.9 nM. Against it:
- CC(C)C1CCc2cnc(C(=O)N[C@H]3COc4ccccc4N(C)C3=O)n2C1 (stereo partly drawn) [Example 173, 6-isopropyl-N—((S)-5-methyl-4-oxo-2,3,4,5-tetrahydrobenzo[b][1,4]oxazepin-3-yl)-5,6,7,8-tetrahydroimidazo[1,5-a]pyridine-3-carboxamide] — 1.7-fold higher, 39.1 nM
- CN1C(=O)C(NC(=O)c2ncn(Cc3ccccc3)n2)CCCn2nccc21 (stereo not drawn) [Example 94, 1-benzyl-N-(4-methyl-5-oxo-4,5,6,7,8,9-hexahydropyrazolo[1,5-a][1,3]diazocin-6-yl)-1H-1,2,4-triazole-3-carboxamide] — 4-fold higher, 92.5 nM
- CC(c1ccccc1)c1nnc(C(=O)N[C@H]2CCn3nccc3N(C)C2=O)[nH]1 (stereo partly drawn) [Example 100, N—((S)-4-methyl-5-oxo-5,6,7,8-tetrahydro-4H-pyrazolo[1,5-a][1,3]diazepin-6-yl)-5-(1-phenylethyl)-4H-1,2,4-triazole-3-carboxamide] — 8.3-fold higher, 189 nM
- CN1C(=O)[C@@H](NC(=O)c2nnc(Cc3cccc(F)c3F)[nH]2)CCn2nccc21 [Example 99, (S)-5-(2,3-difluorobenzyl)-N-(4-methyl-5-oxo-5,6,7,8-tetrahydro-4H-pyrazolo[1,5-a][1,3]diazepin-6-yl)-4H-1,2,4-triazole-3-carboxamide] — 1.5-fold higher, 34.6 nM

Same assay, conditions: human RIP1 kinase domain (2-375), Transcreener ADP assay, 50 uM ATP, 2 hours incubation; read-out: RIP1 Ki

Point of comparison: `Cc1nn2c(c1C)N(C)C(=O)[C@@H](NC(=O)c1nnc(Cc3ccccc3)[nH]1)CC2` [Example 300, (S)-5-benzyl-N-(2,3,4-trimethyl-5-oxo-5,6,7,8-tetrahydro-4H-pyrazolo[1,5-a][1,3]diazepin-6-yl)-4H-1,2,4-triazole-3-carboxamide], Ki 50.4 nM. Against it:
- CN1C(=O)[C@H](NC(=O)c2ncn(Cc3cccc(F)c3F)n2)CCn2nc([C@H]3CC3(F)F)cc21 [Example 312, 1-(2,3-difluorobenzyl)-N—((R)-2-((R)-2,2-difluorocyclopropyl)-4-methyl-5-oxo-5,6,7,8-tetrahydro-4H-pyrazolo[1,5-a][1,3]diazepin-6-yl)-1H-1,2,4-triazole-3-carboxamide] — 2.8-fold lower, 17.8 nM
- CN1C(=O)C(NC(=O)c2cn(Cc3ccccc3)nn2)CCn2cncc21 (stereo not drawn) [Example 295, 1-benzyl-N-(1-methyl-2-oxo-2,3,4,5-tetrahydro-1H-imidazo[1,5-a][1,3]diazepin-3-yl)-1H-1,2,3-triazole-4-carboxamide] — 2.3-fold higher, 118 nM

Same assay, conditions: scale-up batches (Examples A-C); apparent Ki (Morrison tight-binding fit); 50 nM RIP1 kinase domain, 50 uM ATP; read-out: Ki

With `CN1C(=O)[C@@H](NC(=O)c2ncn(Cc3ccccc3)n2)CCn2nc(C3CC3)cc21` [Example A, (S)-1-benzyl-N-(2-cyclopropyl-4-methyl-5-oxo-5,6,7,8-tetrahydro-4H-pyrazolo[1,5-a][1,3]diazepin-6-yl)-1H-1,2,4-triazole-3-carboxamide] the Ki was 16 nM.

Same assay, conditions: tight-binding apparent inhibition constant; human RIP1 kinase domain (2-375) 50 nM, 50 uM ATP, 2 hours; read-out: Ki

Point of comparison: `Cc1ncn2c1N(C)C(=O)[C@H](NC(=O)c1ncn(Cc3ccccc3F)n1)CC2` [Example 580, 1-[(2-fluorophenyl)methyl]-N-[(3R)-1,9-dimethyl-2-oxo-4,5-dihydro-3H-imidazo[1,5-a][1,3]diazepin-3-yl]-1,2,4-triazole-3-carboxamide], Ki 54 nM. Against it:
- CC[C@@]1(C)OCc2cnc(C(=O)N[C@H]3CCn4nc(C)cc4N(C)C3=O)nc21 (racemic) [Example 687, rac-(7R)-7-ethyl-7-methyl-N-[rac-(6S)-2,4-dimethyl-5-oxo-7,8-dihydro-6H-pyrazolo[1,5-a][1,3]diazepin-6-yl]-5H-furo[3,4-d]pyrimidine-2-carboxamide] — 4.6-fold higher, 251 nM
- CCc1cccc2nc(C(=O)N[C@H]3COc4ccccc4N(C)C3=O)nn12 [Example 378, (S)-5-ethyl-N-(5-methyl-4-oxo-2,3,4,5-tetrahydrobenzo[b][1,4]oxazepin-3-yl)-[1,2,4]triazolo[1,5-a]pyridine-2-carboxamide] — 8.1-fold lower, 6.68 nM
- CN1C(=O)[C@@H](NC(=O)c2nc3cccc(-c4ccccc4)c3s2)CCn2nccc21 [Example 392, (S)—N-(4-methyl-5-oxo-5,6,7,8-tetrahydro-4H-pyrazolo[1,5-a][1,3]diazepin-6-yl)-7-phenylbenzo[d]thiazole-2-carboxamide] — 1.8-fold higher, 96.3 nM
- CN1C(=O)[C@@H](NC(=O)c2ncn(Cc3ncccc3Cl)n2)CCn2nccc21 (racemic) [Example 656, 1-[(3-chloro-2-pyridyl)methyl]-N-[rac-(6S)-4-methyl-5-oxo-7,8-dihydro-6H-pyrazolo[1,5-a][1,3]diazepin-6-yl]-1,2,4-triazole-3-carboxamide] — within 1.5-fold, 61 nM
- CCC1CCCc2nc(C(=O)N[C@H]3COc4ccccc4N(C)C3=O)nn21 (stereo partly drawn) [Example 383, 5-ethyl-N—((S)-5-methyl-4-oxo-2,3,4,5-tetrahydrobenzo[b][1,4]oxazepin-3-yl)-5,6,7,8-tetrahydro-[1,2,4]triazolo[1,5-a]pyridine-2-carboxamide] — 1.8-fold lower, 29.5 nM
- CC(C)c1cc2n(n1)CCC(NC(=O)c1ncn(Cc3ccccc3)n1)C(=O)N2C (stereo not drawn) [Example 455, 1-Benzyl-N-(2-isopropyl-4-methyl-5-oxo-5,6,7,8-tetrahydro-4H-pyrazol[1,5-a][1,3]diazepin-6-yl)-1H-1,2,4-triazole-3-carboxamide] — within 1.5-fold, 60 nM
- Cc1cc2n(n1)CC[C@H](NC(=O)c1ncn(Cc3ccccn3)n1)C(=O)N2C [Example 651, 1-(2-pyridylmethyl)-N-(6S)-2,4-dimethyl-5-oxo-7,8-dihydro-6H-pyrazolo[1,5-a][1,3]diazepin-6-yl-1,2,4-triazole-3-carboxamide] — 5.4-fold higher, 290 nM
- Cc1cc2n(n1)CC[C@H](NC(=O)c1nc3n(n1)CCN3c1ccccc1)C(=O)N2C [Example 636, 4-phenyl-N-[(6S)-2,4-dimethyl-5-oxo-7,8-dihydro-6H-pyrazolo[1,5-a][1,3]diazepin-6-yl]-5,6-dihydroimidazo[1,2-b][1,2,4]triazole-2-carboxamide] — 2.4-fold higher, 130 nM
- CN1C(=O)[C@@H](NC(=O)c2nc3n(n2)C(C2CCCCC2)CCC3)COc2ccccc21 (stereo partly drawn) [Example 377, 5-cyclohexyl-N—((S)-5-methyl-4-oxo-2,3,4,5-tetrahydrobenzo[b][1,4]oxazepin-3-yl)-5,6,7,8-tetrahydro-[1,2,4]triazolo[1,5-a]pyridine-2-carboxamide] — 5-fold lower, 10.8 nM
- CN1C(=O)[C@@H](NC(=O)c2nnn(Cc3ccccc3)n2)CCn2nc(C3CC3)cc21 [Example 542] — 8.4-fold lower, 6.4 nM
- O=C(N[C@H]1CCc2cc(F)cc(F)c2NC1=O)c1nc2n(n1)CC[C@H]2c1ccccc1 (single isomer, unassigned) [Example 628] — 11-fold lower, 5 nM
- CC(C)C1CCc2nc(C(=O)N[C@H]3CCn4nccc4N(C)C3=O)nn21 (stereo partly drawn) [Example 346, 5-isopropyl-N-[(6S)-4-methyl-5-oxo-7,8-dihydro-6H-pyrazolo[1,5-a][1,3]diazepin-6-yl]-6,7-dihydro-5H-pyrrolo[1,2-b][1,2,4]triazole-2-carboxamide] — 3.2-fold higher, 175 nM
